Source: patent publication US6285807A, “Fiber optic sensor for long-term analyte measurements in fluids” (Trustees of Tufts College, priority 1998, dated 2001)
Where “and” joins values, the source holds several entries; their conditions need not be identical. Identical values can stand only once. Like-named read-outs stand apart in the source and are kept apart here.

Columns and labels:
[1] = 13 and 14, at 21° C., cited from earlier work
[2] = Fluorescence emission pH titration of carboxy-SNAFL-1 (curve fits for Io, pKin and B); assay type: physicochemical; settings: for I(543/623) (max) / I(543/623) (min) / pKin: at 21° C.
Excerpt: Where the fluorescence intensity I=dh and I0 =dhT, the fluorescence intensity when the indicator is fully undissociated, Equation 4 becomes: [formula]
In this equation the additional term B is the background fluorescence of the system and is an experimentally-derived value. I can also be the ratio of the fluorescence intensities of the protonated and isosbestic forms, where. I=I545 /Iisos
The titration curves are shown for carboxy-SNAFL-1in distilled water and in a 0.67 M solution of NaCl. The solid lines are the theoretical curve fits using Equation 6. […] Experiments were carried out in 0.67 M NaCl because it is necessary to balance the osmotic pressure of the indicator solution in the sensor to that of the test solution. The osmotic pressure of the seawater is equivalent to 0.67 M NaCI.
The solid lines in FIG. 2 are theoretical fits of Equation 5. The results for Io, pKin, and B are summarized in Table 2 together with typical values reported elsewhere [Walt, D. R, Gabor, G., Goyet, C. Anal. Chim. Actca 1993, 274, 47; DeGrandpre, M. D., Anal. Chem. 1993, 65 (4), 331; Whitaker, J. E., Haugland, R. P., Prendergast, R P. Anal. Biochem. 1991, 194, 330].

[3] = Sensor calibration for CO2, constants from theoretical fit (indicator in sensor); assay type: physicochemical; settings: sensor (at 12° C.) (calculated)
Method: The calibration and operation of the sensor operation of the sensor is based on the Severinghaus electrode principle. When carbon dioxide crosses the membrane, the pH of the indicator solution is given by the Henderson-Hasselbach equation: [formula]
where aT =KH KM pCO2 KH /mol dm^3 atm^-1 is Henry's constant and KM is the membrane constant. Substituting Equation 7 into Equation 5 and rearranging gives: [formula]
The dissolved CO2 concentration was determined using Henry's constant [Cox, J. D., Head A. J. J Chem. Soc. Faraday Trans., 1962, 58, 1839]. […] Also, for this calculation the membrane volume was not corrected for the porosity, or water content, of the membrane. These parameters would have opposite effects. In the calibration, aT was assumed to equal the dissolved CO2 in the bulk solution, such that KM =1. The sensitivity of the sensor is approximately ±1 ppm.
The theoretical equation relating the fluorescence intensity. ratio to pCO2 was compared to test date and is shown by the solid curve in FIG. 6. The pHo value was calculated from Equation 5 using pKin while Io was derived from the above analysis. There was good agreement between experimental and theoretically-derived data.

[4] = 13 and 14; at 21° C.; cited from earlier work
[5] = Absorbance/emission spectra of carboxy-SNAFL-1 (excitation at 488 nm); assay type: physicochemical; settings: for Emission (Ex. = 488 nm) (acid): acid form; for Emission (Ex. = 488 nm) (acid) / Emission (Ex. = 488 nm) (base) / Emission (Ex. = 488 nm) (isos): at 21° C.; for Emission (Ex. = 488 nm) (base): base form; for Emission (Ex. = 488 nm) (isos): isosbestic
Excerpt: These peaks are centered at 540 nm and 620 nm and result from the protonated and deprotonated forms of the dyes respectively. This dual wavelength feature of the dye makes it particularly suitable for use in a ratiometric mode which accounts for system instabilities, such as photobleaching and lamp intensity fluctuations. This dye also has an isosbestic point at 625 run (Ex.=488 nm) which can be used for ratiometric measurements to assess the extent of dye photobleaching over time.
The maxima centered at 540 nm and 620 nm arise from the protonated and deprotonated forms of the dye respectively. [drawing 3]
The measurement system 100 comprises a Spectra Physics Model 162A-04 argon-ion laser 105 which provides excitation light radiation, typically at 488 nm. The excitation light is passed through a neutral density filter 110 and an angled dichroic mirror 115 to the proximal end 120 of an optical fiber 125 which conveys the excitation light to the distal end 130 of the fiber 125 and illuminates an optical interrogation zone 135 comprising a fluid sample volume with an indicator dye and analyte. In the presence of the analyte, the excitation light causes the indicator dye to emit emitted light energy in the optical interrogation zone 135, which emitted light is conveyed by the fiber 125 to the proximal end 120 and is deflected through 90° by the front surface 116 of the angled dichroic mirror 115. The emitted light is then focussed with lenses 145, filtered through a long wavelength, band-pass filter 150, and passed through a slit 155 into a monochromater 160. The resulting wavelength-dispersed signal is measured with a Pacific Instruments Model 126. photo-counting detection system. The intensity of the excitation light is measured in photon counts per second as either a function of time or of wavelength examined.

[6] = 13 and 14; cited from earlier work
[7] = distilled water (25° C.), 488 nm excitation

Substance: 5' (and 6')-carboxyseminaphthofluorescein [carboxy-SNAFL-1]
- Absorbance (acid) ([1]; acid form): 481 nm and 510 nm
- Emission (Ex. = 488 nm) (acid) ([1]; acid form): 542 nm
- Absorbance (base) ([1]; base form): 539 nm
- Emission (Ex. = 488 nm) (base) ([1]; base form): 623 nm
- Emission (Ex. = 488 nm) (isos) ([1]; isosbestic): 615 nm
- effect of increasing ionic strength on maximum fluorescence intensity ([2]; distilled water vs 0.67 M NaCl): decreases with increasing ionic strength
- effect of increasing ionic strength on pKin ([2]; distilled water vs 0.67 M NaCl): decreases pKin
- I(543/623) (max) ([2]; in 0.67M NaCl): 5.27
- I(543/623) (min) ([2]; in 0.67M NaCl): 0.129
- pKin ([2]; in 0.67M NaCl): 7.67
- I(543/623) (max) ([2]; in H2O): 5.41
- I(543/623) (min) ([2]; in H2O): 0.145
- pKin ([2]; in H2O): 8.01
- I(543/623) (max) [3]: 5.54
- pKin [3]: 7.98
- Emission (Ex. = 488 nm) (acid) ([3]; acid form): 545 nm
- Emission (Ex. = 488 nm) (base) ([3]; base form): 610 nm
- I(543/623) (max) [4]: 6.13
- I(543/623) (min) [4]: 0.09
- pKin [4]: 7.75
- isosbestic point ([5]; Ex.=488 nm): 625 nm
- emission maximum, deprotonated form [5, 7]: 620 nm
- emission maximum, protonated form [5, 7]: 540 nm
- emission peak, deprotonated form ([5]; excited at 488 nm): 620 nm
- emission peak, protonated form ([5]; excited at 488 nm): 540 nm
- Emission (Ex. = 488 nm) (acid) ([5]; in 0.67M NaCl): 542 nm
- Emission (Ex. = 488 nm) (base) ([5]; in 0.67M NaCl): 620 nm
- Emission (Ex. = 488 nm) (isos) ([5]; in 0.67M NaCl): 624 nm
- Emission (Ex. = 488 nm) (acid) ([5]; in H2O): 545 nm
- Emission (Ex. = 488 nm) (base) ([5]; in H2O): 618 nm
- Emission (Ex. = 488 nm) (isos) ([5]; in H2O): 632 nm
- ΔH° [6]: 3.78 kcal/mol
- ΔS° [6]: -22.6 cal mol^-1 K^-1
- ΔpH/ΔT [6]: 0.0192 ° C.^-1
